Source: patent publication US20020006906A1, “Novel active agent, composition containing it and use in the cosmetic, dermocosmetic, dermopharmaceutical or pharmaceutical field or on woven or nonwoven supports” (SOCIETE D'EXPLOITATION DE PRODUITS POUR LES, priority 2000, published 2002)

Tests used:
superoxide anion = assay: Anti-free-radical test: xanthine/xanthine oxidase, reduction of cytochrome C (550 nm); assay type: biochemical; settings: 0.46% (as active substance); for % anti-free radical inhibition: 25° C.
Method: The determination of the anti-free-radical effect is based on the capacity which the molecule to be studied has to inhibit or reduce the rate of reduction of cytochrome C, when it is added to the reaction medium. The superoxide anion is formed by the action of xanthine oxidase on xanthine. It induces, in the absence of a molecule capable of capturing it, the reduction of cytochrome C. The appearance of reduced cytochrome C is monitored in a spectrophotometer at 550 nm, in the presence (Trial) and in the absence (Control) of anti-free-radical molecules.
The reaction is carried out in a spectrophotometer thermostated at 25° C. and provided with a sample changer. All the kinetics are determined at least three times; the mean and the standard deviation are calculated for the three values obtained. A percentage inhibition of the rate of appearance of the coloured product (corresponding to the quantity of free superoxide anion) is therefore calculated for each active agent tested. The calculation is performed relative to the rate of appearance of the coloured product in the control (without active agent). The percentage inhibition of the appearance of the coloured product by the active agent therefore corresponds to the percentage inhibition of the superoxide anion.

[1] = test system: normal human keratinocytes; assay: Cell division: fluorimetric DNA assay in keratinocytes under thermal stress; assay type: cell-based
Method: The effect of the active agents on cell division is measured by a fluorimetric assay of the content of DNA in normal human keratinocytes subjected to a high thermal stress (20 minutes at 50° C.). The quantity of DNA present in the cells determines their capacity to divide. The cells are used at 60% confluence. They are incubated for 24 hours in the presence of the active agents. Cell division is determined by assaying the quantity of DNA present per well.
Four samples A, B, C and D, of a culture normal human keratinocytes, are subjected to the following respective treatments:
Sample A: cells not treated and left at room temperature.
Sample B: cells not treated and heated at 50° C. for 20 minutes.
Sample D: cells left incubated for 24 hours with panthenol (concentration: 12.5×10^−6% by weight of active substance) and heated at 50° C. for 20 minutes.
The DNA in each of the samples is then assayed.

| Anti-free radical activity (in words) (superoxide anion) | % anti-free radical inhibition (superoxide anion) [%] | Compound | Relative level of cell division (base 100: batch B) ([1]; Sample D: 12.5×10^−6% active substance, 24 hours, 50° C. for 20 minutes) | Cell division (in μg/well), DNA per well ([1]; Sample D: 24 hours with 12.5×10^−6% by weight of active substance, then 50° C. for 20 minutes (heated untreated sample B 3.7)) [μg/well] | Effect on cell division under heat (in words) ([1]; keratinocytes heated at 50° C. for 20 minutes) |
| --- | --- | --- | --- | --- | --- |
| nonexistent | 0 | CC(C)(CO)C(O)C(=O)NCCCO (stereo not drawn) [Panthenol, 2,4-dihydroxy-N-(3-hydroxypropyl)-3,3-dimethylbutanamide] | 116.2 | 4.3 | only compensates for these effects |
|  | 94 | O=C1O[C@H]([C@@H](O)CO)C(O)=C1O [Vitamin C, ascorbic acid] |  |  |  |
